Test results as given in patent publication US10633409B2, “Bola-amphiphilic compounds and their uses for biomedical applications” (UNIVERSITE DE BORDEAUX, priority 2014, dated 2020).

Legend:
hASCs or D1 = assay: Live/Dead staining (calcein-AM, ethidium homodimer) of cells seeded within gels; assay type: cell-based; conditions: cells seeded within gel 3% (w/v), at 2 weeks
Method: For all in vitro assays, the hydrogel obtained from compound 6 was prepared at a concentration of 3% (w/v). The compound 6 powder was solubilized in PBS 1× under agitation (900 rpm) at 25° C. during 45 minutes. Then, when the gel was formed, it was left at room temperature, without agitation, during 3 to 4 hours. To allow cell seeding, the gel was heated during 30 minutes at 55° C. Once the liquid solution was obtained, it was rapidly cooled down to 37° C. and thoroughly mixed with 10 μL cell suspension at a concentration of 1 million cells per mL of gel. Finally, the cellularized hydrogel was maintained under agitation (600 rpm), at 25° C. during 45 minutes. After this period, medium was been added (250 μL/tube) and tubes were incubated at controlled atmosphere (5% CO2, 37° C.)
[…] Cells seeded within gels were incubated for 1 h at 37° C. in Hank's medium supplemented with 1.25 μL calcein-AM and 5 μL EthD-1.

[1] = tested on: rat osteoblastic cells (A) or human ASCs (B); assay: Cytocompatibility by Alamar Blue metabolism in cells grown in compound 6-based gels; assay type: cell-based; conditions: compound 6-based gel 3% (w/v)
Method: (§1) Mesenchymal stem cells were isolated from human adipose tissue. Human subcutaneous fat was obtained from healthy patients aged 20 to 80 years old who underwent hip surgery in Bordeaux Pellegrin CHU (Bordeaux, France). Fat mass was separated from other tissues, washed with sterilized PBS, finely cut and incubated with 0.1% (w/v) collagenase type I (Worthington, Lakewood, N.J., USA) at 37° C. with gentle agitation for 1 h 30. After filtration and centrifugation, the top liquid layer was removed and the remaining Stromal Vascular Fraction (SVF) was treated for 10 min with ELB (Erythocyte Lysis Buffer; 155 mM NH4Cl (Sigma-Aldrich, St. Louis, Mo., USA), 5.7 mM K2HPO4, 7.4 mM K2HPO4-3H2O, 0.1 mm EDTA (all Sigma-Aldrich)), and then centrifuged. […]
Cell viability was also evaluated by using the Alamar Blue metabolic activity assay. […] After this time, the fluorescence was measured at wavelengths excitation 530 nm and emission 590 nm. Triplicate samples were analyzed for each experiment. […]
Cytocompatibility was determined by monitoring alamar blue metabolism in rat osteoblastic cells (A) or human ASCs (B) grown in compound 6-based gels. […]

[2] = tested on: human mesenchymal stem cells (ASCs); assay: Cytotoxicity by MTT test (cell metabolic activity); assay type: cell-based
Method: as §1
The cytotoxicity of compound 6 was evaluated by the measurement of the cell metabolic activity (MTT assay). […]
MTT assay was performed after 72 h of incubation. […] Results were expressed as a percentage of the metabolic activity of the positive control. Absorbance was measured at a wavelength of 570 nm with background subtraction at 630 nm.
The cytotoxicity of compound 6 was determined by MTT test to measure the metabolic activity of human mesenchymal stem cells (ASCs) 48 hours after incubation with increasing concentrations of compound 6. […]

[3] = Sol-gel transition temperature (Tgel) by rheology; assay type: physicochemical; conditions: hydrogel 3% w/v, heated from 25 to 60° C. (3° C./min), oscillatory stress 5 Pa, 1 Hz
Method: The determination of gel-sol transition temperature can also be determinated by rheology. The hydrogel (3% product 6 of example 2, w/v) was heated progressively from 25 to 60° C. (3° C./min). The oscillatory stress applied was set to 5 Pa at a constant frequency (1 Hz). The sol-gel transition point was taken as the temperature at which the gel became liquid. This melting temperature is reached at the intersection of the viscoelastic moduli (G′ and G″). This value is of 46° C. which is compatible with the cell culture at the gel state (37° C.).

[4] = Gelation test (tube inversion); assay type: physicochemical; conditions: aqueous dispersion 1.5 wt % in Milli-Q water, heated until dissolution (45° C.), cooled to room temperature
Method: The aqueous dispersions (Milli-Q water, 18 MΩ·cm^−1) containing 1.5 wt % of compounds 5 and 6 obtained in examples 1 and 2 were heated until dissolution (at 45° C.) and gradually allowed to cool to room temperature unless otherwise stated.

Row | Structure (SMILES) | Live/dead staining result (hASCs or D1) | cytocompatibility when used as cell culture medium [1] | concentrations up to which the compound is non toxic ([2]; MTT, human ASCs, tested 5 μM to 5 mM, value printed as approximate) | cytotoxicity (result in words) ([2]; summary of example 12) | sol-gel transition temperature (Tgel), intersection of G′ and G″ [3] | gel formation (solid aggregate mass stable to inversion of the container) [4]
1 | Cc1cn([C@H]2C[C@H](O)[C@@H](Cn3cc(COCCCCCCCCCCCCOCc4cn(C[C@H]5O[C@@H](n6cc(C)c(=O)n(Cc7cn([C@@H]8O[C@H](CO)[C@@H](O)[C@H](O)[C@H]8O)nn7)c6=O)C[C@@H]5O)nn4)nn3)O2)c(=O)n(Cc2cn([C@@H]3O[C@H](CO)[C@@H](O)[C@H](O)[C@H]3O)nn2)c1=O [compound 6] | vast majority of green (living) cells | god cytocompatibility | ≤ 1000 µM | not cytotoxic | 46 °C | form gels
2 | Cc1cn([C@H]2C[C@H](O)[C@@H](Cn3cc(COCCCCCCCCCCCCO)nn3)O2)c(=O)n(Cc2cn([C@@H]3O[C@H](CO)[C@@H](O)[C@H](O)[C@H]3O)nn2)c1=O [compound 5, 5′-[4-(12-hydroxydodecanyloxy)methyl)-1H-1,2,3-triazol-1-yl]-5′-deoxy-N3-(1-((β-D-glucopyranoside)-1H-1,2,3-triazol-4-yl)methyl thymidine] | – | – | – | – | – | form gels
